For this assay, the system named is human iCell neurons. The assay can be described thus: Amyloid beta 42 ELISA on supernatant, neuronal model. The following applies: treated 2 days, 3 concentrations, FIG. 2. For orientation: In an ELISA, binding on a coated surface is turned into a signal by an enzyme label.

Description: For a neuronal model, human iCell neurons (Cellular Dynamics International) were plated in 96-well plates and were grown to neuronal maturity by culturing for 2 weeks.
In each model, cells were then treated with DHA (UFA), arginine and citrulline (NORC's) at 3 different concentrations (see table 1 in FIG. 1) for 2 days. The supernatant was used to perform Amyloid beta 42 (A131-42) ELISA Kit, Human (KHB3441, Thermo Fisher Scientific).

Turning to `CC/C=C\C/C=C\C/C=C\C/C=C\C/C=C\C/C=C\CCC(=O)O` [DHA, docosahexaenoic acid], the “release of Aβ1-42” value is reported as “no effect”. On to `NC(=O)NCCC[C@H](N)C(=O)O` [citrulline], for which the “release of Aβ1-42” value was “no effect”.

Source of the values: patent US11951137B2, “Compositions comprising unsaturated fatty acids and nitric oxide releasing compounds and use thereof for enhancing cognitive and related functions” (SOCIETE DES PRODUITS NESTLE S.A., priority 2008, dated 2024).
